Experimental data published in article PMC10600239, “Selective MCL-1 inhibitor ABBV-467 is efficacious in tumor models but is associated with cardiac troponin increases in patients” (Communications Medicine, 2023).
Read-outs that look alike come from different tables or passages of the source.

Key:
Experiment in all cases: Off-target profiling (Supplementary Data 1)
[1] = molecular target: off-target receptors, ion channels, and transporters (Homo sapiens, UniProt O43318); conditions: TR-FRET Kinome, SignalChem A-1167389.7 .05(Subs Conc)
off-target receptors, ion channels, and transporters (Homo sapiens, UniProt O43318), sequence (O43318 1-303): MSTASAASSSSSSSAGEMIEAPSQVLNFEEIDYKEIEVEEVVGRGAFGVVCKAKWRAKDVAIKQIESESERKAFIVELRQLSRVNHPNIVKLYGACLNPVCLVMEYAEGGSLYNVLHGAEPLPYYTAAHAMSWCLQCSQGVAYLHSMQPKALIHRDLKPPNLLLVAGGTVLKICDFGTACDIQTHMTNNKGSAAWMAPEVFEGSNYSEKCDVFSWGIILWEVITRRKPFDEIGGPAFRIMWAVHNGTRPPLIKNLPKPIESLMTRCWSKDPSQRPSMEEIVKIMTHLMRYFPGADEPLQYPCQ
off-target receptors, ion channels, and transporters (Homo sapiens, UniProt O43318), sequence (Q15750 437-504 partner): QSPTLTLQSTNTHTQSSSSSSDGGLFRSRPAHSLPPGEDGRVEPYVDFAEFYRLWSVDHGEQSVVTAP

[2] = molecular target: off-target receptors, ion channels, and transporters (Homo sapiens, UniProt P04150); conditions: CEREP
[3] = molecular target: off-target receptors, ion channels, and transporters (Homo sapiens, UniProt P14416)
off-target receptors, ion channels, and transporters (Homo sapiens, UniProt P14416), sequence (P14416 whole entry): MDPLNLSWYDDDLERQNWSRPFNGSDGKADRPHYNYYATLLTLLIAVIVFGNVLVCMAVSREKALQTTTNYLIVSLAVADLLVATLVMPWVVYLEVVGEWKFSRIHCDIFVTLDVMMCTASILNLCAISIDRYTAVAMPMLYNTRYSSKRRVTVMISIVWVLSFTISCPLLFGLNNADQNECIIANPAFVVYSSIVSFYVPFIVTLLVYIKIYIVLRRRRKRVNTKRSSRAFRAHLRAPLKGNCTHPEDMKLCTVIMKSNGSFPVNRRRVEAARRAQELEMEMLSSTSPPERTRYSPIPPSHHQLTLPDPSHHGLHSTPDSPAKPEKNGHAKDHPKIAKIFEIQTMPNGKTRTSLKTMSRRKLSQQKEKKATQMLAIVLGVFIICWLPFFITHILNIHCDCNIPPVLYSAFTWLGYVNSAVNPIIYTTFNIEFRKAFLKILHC

[4] = molecular target: off-target receptors, ion channels, and transporters (Homo sapiens, UniProt P57059); conditions: TR-FRET Kinome; Invitrogen A-1167389.7 .005(Subs Conc)
[5] = molecular target: off-target receptors, ion channels, and transporters (Homo sapiens, UniProt Q9BYT3); conditions: TR-FRET Kinome; Invitrogen A-1167389.7 .05(Subs Conc)
off-target receptors, ion channels, and transporters (Homo sapiens, UniProt Q9BYT3), sequence (Q9BYT3 whole entry): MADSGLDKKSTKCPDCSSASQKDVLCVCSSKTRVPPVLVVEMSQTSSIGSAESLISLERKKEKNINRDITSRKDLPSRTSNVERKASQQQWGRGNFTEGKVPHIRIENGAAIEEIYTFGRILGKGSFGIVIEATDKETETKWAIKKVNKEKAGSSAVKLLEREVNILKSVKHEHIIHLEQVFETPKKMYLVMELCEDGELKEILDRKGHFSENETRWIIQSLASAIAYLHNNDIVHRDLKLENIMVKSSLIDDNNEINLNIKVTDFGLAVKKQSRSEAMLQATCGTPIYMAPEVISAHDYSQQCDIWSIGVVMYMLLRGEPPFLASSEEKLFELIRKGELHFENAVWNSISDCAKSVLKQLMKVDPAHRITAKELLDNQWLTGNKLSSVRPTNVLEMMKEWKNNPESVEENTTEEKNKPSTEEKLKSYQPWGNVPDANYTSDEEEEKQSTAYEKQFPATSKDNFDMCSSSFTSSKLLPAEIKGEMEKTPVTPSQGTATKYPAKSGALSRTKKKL

[6] = molecular target: off-target receptors, ion channels, and transporters (Homo sapiens, UniProt P08908)
off-target receptors, ion channels, and transporters (Homo sapiens, UniProt P08908), sequence (P08908 whole entry): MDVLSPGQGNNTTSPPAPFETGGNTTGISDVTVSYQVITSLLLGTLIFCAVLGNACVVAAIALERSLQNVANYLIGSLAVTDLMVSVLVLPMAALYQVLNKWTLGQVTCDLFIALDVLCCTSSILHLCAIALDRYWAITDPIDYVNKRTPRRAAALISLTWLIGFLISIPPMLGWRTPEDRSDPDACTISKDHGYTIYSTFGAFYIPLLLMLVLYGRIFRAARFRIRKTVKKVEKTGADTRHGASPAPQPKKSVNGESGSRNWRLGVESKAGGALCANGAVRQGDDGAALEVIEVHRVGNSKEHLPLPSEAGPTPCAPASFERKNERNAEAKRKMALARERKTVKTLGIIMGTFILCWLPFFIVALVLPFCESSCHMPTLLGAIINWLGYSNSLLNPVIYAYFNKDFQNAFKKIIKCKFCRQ

[7] = molecular target: off-target receptors, ion channels, and transporters (Homo sapiens, UniProt P07333); conditions: TR-FRET Kinome; Invitrogen A-1167389.7 .004(Subs Conc)
[8] = molecular target: off-target receptors, ion channels, and transporters (Homo sapiens, UniProt P07948); conditions: TR-FRET Kinome, SignalChem A-1196581.2 .002(Subs Conc)
off-target receptors, ion channels, and transporters (Homo sapiens, UniProt P07948), sequence (P07948 2-512): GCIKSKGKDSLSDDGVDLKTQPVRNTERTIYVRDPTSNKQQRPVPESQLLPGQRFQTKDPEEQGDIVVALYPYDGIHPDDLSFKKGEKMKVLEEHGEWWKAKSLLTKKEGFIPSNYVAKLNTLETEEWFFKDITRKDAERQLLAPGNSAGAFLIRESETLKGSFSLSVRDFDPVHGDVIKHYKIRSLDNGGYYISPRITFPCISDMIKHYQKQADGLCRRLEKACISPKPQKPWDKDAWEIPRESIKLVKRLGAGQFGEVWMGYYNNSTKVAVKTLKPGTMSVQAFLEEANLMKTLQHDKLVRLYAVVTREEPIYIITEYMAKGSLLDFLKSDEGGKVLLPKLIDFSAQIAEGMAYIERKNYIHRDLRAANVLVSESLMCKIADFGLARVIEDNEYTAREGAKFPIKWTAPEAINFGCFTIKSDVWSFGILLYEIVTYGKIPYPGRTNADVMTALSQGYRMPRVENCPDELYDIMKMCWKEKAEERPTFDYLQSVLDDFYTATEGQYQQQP

[9] = molecular target: off-target receptors, ion channels, and transporters (Homo sapiens, UniProt P30291); conditions: TR-FRET Kinome; Carna Biosciences A-1248830.7 .015(Subs Conc)
off-target receptors, ion channels, and transporters (Homo sapiens, UniProt P30291), sequence (P30291 whole entry): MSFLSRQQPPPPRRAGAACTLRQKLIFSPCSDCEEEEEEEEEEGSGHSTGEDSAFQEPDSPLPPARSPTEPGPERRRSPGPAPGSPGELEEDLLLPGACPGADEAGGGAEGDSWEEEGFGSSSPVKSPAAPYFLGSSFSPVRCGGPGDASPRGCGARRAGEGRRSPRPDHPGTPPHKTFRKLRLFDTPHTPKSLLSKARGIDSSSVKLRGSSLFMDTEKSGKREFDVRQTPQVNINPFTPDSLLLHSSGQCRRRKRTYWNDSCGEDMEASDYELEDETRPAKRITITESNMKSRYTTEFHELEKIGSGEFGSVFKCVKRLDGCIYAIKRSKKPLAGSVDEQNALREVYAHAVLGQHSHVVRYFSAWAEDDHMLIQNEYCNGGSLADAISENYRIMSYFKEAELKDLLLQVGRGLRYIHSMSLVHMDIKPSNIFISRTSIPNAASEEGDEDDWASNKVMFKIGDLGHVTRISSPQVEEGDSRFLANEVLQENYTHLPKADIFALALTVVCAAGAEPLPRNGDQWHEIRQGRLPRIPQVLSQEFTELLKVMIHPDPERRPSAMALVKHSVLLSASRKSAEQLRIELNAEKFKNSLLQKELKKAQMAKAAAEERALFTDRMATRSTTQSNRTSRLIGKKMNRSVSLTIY

[10] = molecular target: off-target receptors, ion channels, and transporters (Homo sapiens, UniProt Q9UL54); conditions: TR-FRET Kinome; Invitrogen A-1169612.6 .2(Subs Conc)
[11] = molecular target: off-target receptors, ion channels, and transporters (Homo sapiens, UniProt Q08345); conditions: TR-FRET Kinome; Invitrogen A-1196581.2 .003(Subs Conc)
[12] = molecular target: off-target receptors, ion channels, and transporters (Homo sapiens, UniProt P52333); conditions: TR-FRET Kinome; Invitrogen A-1180691.2 .05(Subs Conc)
[13] = molecular target: off-target receptors, ion channels, and transporters (Homo sapiens, UniProt O60674); conditions: TR-FRET Kinome; Invitrogen A-1167389.7 .006(Subs Conc)
[14] = molecular target: off-target receptors, ion channels, and transporters (Homo sapiens, UniProt P49841); conditions: TR-FRET Kinome; Invitrogen A-1169612.6 .006(Subs Conc)
[15] = molecular target: off-target receptors, ion channels, and transporters (Homo sapiens, UniProt P24941); conditions: TR-FRET Kinome; Invitrogen A-1233106.2 .025(Subs Conc)
[16] = molecular target: off-target receptors, ion channels, and transporters; conditions: for EC50: Bioprofiling 6pt Ag
[17] = molecular target: off-target receptors, ion channels, and transporters (Homo sapiens, UniProt P48729); conditions: TR-FRET Kinome; Invitrogen A-1180691.2 .05(Subs Conc)
[18] = molecular target: off-target receptors, ion channels, and transporters (Homo sapiens, UniProt P08069); conditions: TR-FRET Kinome; Invitrogen A-1198909.2 .2(Subs Conc)
off-target receptors, ion channels, and transporters (Homo sapiens, UniProt P08069), sequence (P08069 31-1367): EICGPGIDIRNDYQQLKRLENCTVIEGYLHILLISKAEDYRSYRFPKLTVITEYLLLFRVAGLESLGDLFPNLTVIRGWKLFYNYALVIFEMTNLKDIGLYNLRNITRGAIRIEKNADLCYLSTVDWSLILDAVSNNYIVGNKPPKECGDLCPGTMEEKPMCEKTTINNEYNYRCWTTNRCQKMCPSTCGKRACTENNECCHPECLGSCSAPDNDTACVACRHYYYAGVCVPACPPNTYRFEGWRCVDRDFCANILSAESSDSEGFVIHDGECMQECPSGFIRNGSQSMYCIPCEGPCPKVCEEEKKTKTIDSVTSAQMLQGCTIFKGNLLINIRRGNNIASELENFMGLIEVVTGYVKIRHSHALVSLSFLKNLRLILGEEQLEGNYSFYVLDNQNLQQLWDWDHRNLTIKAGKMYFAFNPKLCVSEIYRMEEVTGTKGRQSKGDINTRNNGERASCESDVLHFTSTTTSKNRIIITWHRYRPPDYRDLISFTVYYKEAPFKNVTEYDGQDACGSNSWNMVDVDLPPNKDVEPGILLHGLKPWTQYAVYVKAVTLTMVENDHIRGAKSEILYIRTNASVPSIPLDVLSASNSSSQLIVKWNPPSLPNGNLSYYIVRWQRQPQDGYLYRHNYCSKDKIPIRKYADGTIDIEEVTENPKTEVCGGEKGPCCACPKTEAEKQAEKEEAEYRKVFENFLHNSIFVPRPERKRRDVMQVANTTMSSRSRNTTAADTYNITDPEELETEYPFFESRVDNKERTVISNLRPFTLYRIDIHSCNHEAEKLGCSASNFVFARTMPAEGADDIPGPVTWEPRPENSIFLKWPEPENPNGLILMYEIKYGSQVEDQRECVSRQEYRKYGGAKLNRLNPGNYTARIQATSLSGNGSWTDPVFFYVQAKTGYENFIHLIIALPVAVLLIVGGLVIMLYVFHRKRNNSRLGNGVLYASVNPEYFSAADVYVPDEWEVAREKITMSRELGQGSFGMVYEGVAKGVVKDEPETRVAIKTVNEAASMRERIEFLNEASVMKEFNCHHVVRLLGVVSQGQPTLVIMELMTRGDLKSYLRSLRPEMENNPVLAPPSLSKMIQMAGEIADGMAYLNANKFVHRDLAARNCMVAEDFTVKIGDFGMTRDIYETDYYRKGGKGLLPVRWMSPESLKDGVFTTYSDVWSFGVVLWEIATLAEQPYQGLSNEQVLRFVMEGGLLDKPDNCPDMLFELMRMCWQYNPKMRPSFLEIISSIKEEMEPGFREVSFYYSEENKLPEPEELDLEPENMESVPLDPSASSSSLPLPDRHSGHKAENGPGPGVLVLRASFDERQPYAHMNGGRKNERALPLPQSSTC

[19] = molecular target: off-target receptors, ion channels, and transporters (Homo sapiens, UniProt Q9H4B4); conditions: TR-FRET Kinome; Invitrogen A-1224615.7 .2(Subs Conc)
[20] = molecular target: off-target receptors, ion channels, and transporters (Homo sapiens, UniProt P43405); conditions: TR-FRET Kinome; Invitrogen A-1167389.7 .001(Subs Conc)
[21] = molecular target: off-target receptors, ion channels, and transporters (Homo sapiens, UniProt P49760); conditions: TR-FRET Kinome; Invitrogen A-1180691.2 .05(Subs Conc)
[22] = molecular target: off-target receptors, ion channels, and transporters (Homo sapiens, UniProt O43293); conditions: TR-FRET Kinome; Invitrogen A-1180691.2 .1(Subs Conc)
[23] = molecular target: off-target receptors, ion channels, and transporters (Homo sapiens, UniProt P07949); conditions: TR-FRET Kinome; Invitrogen A-1180691.2 .1(Subs Conc)
[24] = molecular target: off-target receptors, ion channels, and transporters (Homo sapiens, UniProt P05771); conditions: TR-FRET Kinome, SignalChem A-1167389.7 .05(Subs Conc)
off-target receptors, ion channels, and transporters (Homo sapiens, UniProt P05771), sequence (P05771 2-671): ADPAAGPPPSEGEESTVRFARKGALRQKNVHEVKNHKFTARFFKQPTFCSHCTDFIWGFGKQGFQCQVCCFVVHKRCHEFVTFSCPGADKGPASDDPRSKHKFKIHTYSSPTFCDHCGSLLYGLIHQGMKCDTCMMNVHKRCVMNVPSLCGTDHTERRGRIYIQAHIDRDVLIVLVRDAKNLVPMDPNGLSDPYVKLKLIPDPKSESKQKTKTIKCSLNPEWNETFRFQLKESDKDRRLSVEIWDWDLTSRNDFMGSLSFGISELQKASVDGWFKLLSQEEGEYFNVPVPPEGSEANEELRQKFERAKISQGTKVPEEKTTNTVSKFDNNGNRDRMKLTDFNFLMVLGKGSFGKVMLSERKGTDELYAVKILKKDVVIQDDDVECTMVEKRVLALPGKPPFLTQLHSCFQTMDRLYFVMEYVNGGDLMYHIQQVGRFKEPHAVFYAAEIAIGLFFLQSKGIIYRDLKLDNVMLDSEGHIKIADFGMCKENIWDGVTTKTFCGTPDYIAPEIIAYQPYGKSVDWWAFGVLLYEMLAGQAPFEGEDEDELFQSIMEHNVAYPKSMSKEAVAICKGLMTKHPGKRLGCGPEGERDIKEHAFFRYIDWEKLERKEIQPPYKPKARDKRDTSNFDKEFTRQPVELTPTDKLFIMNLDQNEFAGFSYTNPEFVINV

## Cc1c(Cl)c2c(Cl)c(C)c1-c1c(-c3ccc(F)cc3)sc3ncnc(c13)O[C@@H](C(=O)O)Cc1cc(ccc1OCc1ccnc(-c3ccc(OC[C@H]4COCCO4)cc3)n1)OC[C@@H](CN1CCN(C)CC1)O2 [ABBV-467]
[1]; read-out: TAK1-TAB1 - IC50
  IC50: > 10 µM
[1]; read-out: TAK1-TAB1 - Ki
  Ki: > 3.91 µM
[2]
  Glucocorticoid Human Agonist Ligand (Binding Assay) - IC50: 1 µM
[3]; Bioprofiling 6pt Ag
  D2L CHO Human - EC50: > 10 µM
[3]; Bioprofiling 6pt Antag, Quinpirole
  D2L CHO Human - IC50: > 10 µM
[4]
  SIK1 - IC50: > 10 µM
[5]
  STK33 - IC50: > 10 µM
[6]; Bioprofiling 6pt Ag
  5-HT1A CHO Human - EC50: > 10 µM
[6]; Bioprofiling 6pt Antag, 5-Carboxytryptamine (5-CT)
  5-HT1A CHO Human - IC50: > 10 µM
[7]
  CSF1R - IC50: > 10 µM
[8]; read-out: LYN-B - IC50
  IC50: > 10 µM
[8]; read-out: LYN-B - Ki
  Ki: > 8.15 µM
[9]
  Wee1 - IC50: > 10 µM
[10]
  TAOK2 - IC50: > 10 µM
[11]
  DDR1 - IC50: > 10 µM
[12]
  JAK3 - IC50: > 10 µM
[13]
  JAK2 - IC50: > 10 µM
[14]
  Gsk3b - IC50: 9.9 µM
[15]
  cdk2 - IC50: > 10 µM
[16]; read-out: CHO Hamster - EC50
  EC50: > 10 µM
[16]; read-out: Cav1.2 (L-type) ND7/23 Mouse/Rat - EC50
  EC50: > 10 µM
[16]; read-out: Cav1.2 (L-type) ND7/23 Mouse/Rat - IC50, Bioprofiling 6pt Antag, KCl
  IC50: > 10 µM
[17]
  Ck1alpha1 - IC50: > 10 µM
[18]
  IGF1R - IC50: > 10 µM
[19]
  Plk3 - IC50: > 10 µM
[20]
  Syk - IC50: > 10 µM
[21]
  CLK2 - IC50: > 10 µM
[22]
  Zipk - IC50: > 10 µM
[23]
  RET - IC50: > 10 µM
[24]; read-out: PKCbeta2 - IC50
  IC50: > 10 µM
[24]; read-out: PKCbeta2 - Ki
  Ki: > 3.9 µM
